Measured values reported in patent publication US20080077999A1, “Using Nonhuman Animal Model, Method of Measuring Transcription Activity Method of Measuring Cell Quantity and Method of Measuring Tumor Volume” (Eisai R&D Management Co., Ltd., priority 2004, published 2008).

What was measured:
[1] = test system: transcriptional activity through STAT6 activation by IL4 stimulation; assay: Test of inhibitory action in mouse air pouch model introduced with E9 cells (blood PLAP activity after IL4 stimulation); format: in vivo, CDF1 mouse; conditions: orally administered 20 mg/kg, 1 hour before IL4 injection into air pouch; plasma 24 hours after IL4
Description: 5% cytodex3 (Amersham Bioscience, 17-0485-01) solution and 2% CMC solution (Daiichi Kogyo Seiyaku Co., Ltd.) were prepared. More specifically, 5 g of cytodex3 was suspended in 100 ml of PBS (SIGMA, R8537) and sterilized by autoclaving. On the other hand, the 2% CMC solution was prepared by adding 2 g of CMC in 100 ml of PBS while stirring with a stirrer bar and followed by sterilization by autoclaving.
Then, E9 cells were subjected to trypsin-EDTA treatment to be removed from the wall of the vessel and the cells were suspended in DMEM to make 1.0×10^6 cells/ml. 0.2 g of cytodex3 was mixed with 1.0×10^7 cells/ml of E9 cells. More specifically, 4 ml of 5% cytodex3 solution was mixed with 10 ml of 1.0×10^6 cells/ml of cell suspension. Then, the cell/cytodex3 suspension was inoculated on a non-tissue culture plate (IWAKI, SH90-15) and cultured in a CO2 incubator. […]
After 24 hours, orbital blood drawing was conducted using a heparin-treated Terumo hematocrit capillary tube (TERUMO Corporation, VC-H075H). […] To inactivate endogenous alkaline phosphatase, the plasma sample was treated in a hot water bath at 65° C. for 10 minutes and then PLAP activity derived from E9 cells in the plasma was measured. […] Subsequently, while shielding light, the mixture was incubated at room temperature for 1 hour, followed by measurement of intensity of chemiluminescence using a plate reader (Perkin Elmer, ARVO).

[2] = test system: transcriptional activity through STAT6 activation by IL4 stimulation; conditions: in vitro; cited from earlier work
[3] = test system: E9 cell (HEK293 with STAT6-PLAP reporter plasmid and STAT6-expression vector plasmid); assay: PLAP activity in culture supernatant of cells stably expressing STAT6-PLAP reporter plasmid and STAT6 expression vector plasmid upon human IL4 stimulation; format: cell-based; conditions: human IL4 final concentration 1 ng/ml, next day
Description: More specifically, the cloned cell was subjected to trypsin-EDTA treatment to be removed from the wall of the vessel and suspended in DMEM and cells were inoculated on a 96-well cell culture plate to be 1.0×10^4 cells/190 μl/well. On the next day, 10 μl of 20 ng/ml human IL4 (Calbiochem, 407635) was added to the culture medium at a final concentration of 1 ng/ml. On the next day, the culture supernatant was recovered and the PLAP activity in the culture supernatant was measured.
More specifically, 100 μl of PLAP buffer (0.28 M Na2CO3—NaHCO3 pH 10.0, 8 mM MgSO4) was added to a black plate for ELISA (Sumitomo Bakelite Co., Ltd., No. MS-8496K), and 10 μl of the culture supernatant which had been treated in a hot water bath at 65° C. for 10 minutes was added thereto. Then, 50 μl of Lumi-Phos 530 (Lumigen, Inc.) was added, followed by mixing. Subsequently, while shielding light, the mixture was incubated at room temperature for 1 hour, followed by measurement of intensity of chemiluminescence using a plate reader (Perkin Elmer, ARVO). […] Hereinafter, this clone is named E9 cell.

[4] = test system: E9 cells (STAT6-PLAP reporter); assay: Mouse air pouch model introduced with E9 cells: plasma PLAP activity upon human IL4 stimulation; format: in vivo, CDF1 mouse; conditions: 1 ml of 3 ng/ml human IL4 injected into air pouch, plasma after 24 hours
Description: 5% cytodex3 (Amersham Bioscience, 17-0485-01) solution and 2% carboxymethylcellulose (hereinafter, also referred to as CMC) solution (Daiichi Kogyo Seiyaku Co., Ltd.) were prepared. More specifically, 5 g of cytodex3 was suspended in 100 ml of PBS (SIGMA, R8537) and sterilized in an autoclave. On the other hand, the 2% CMC solution was prepared by adding 2 g of CMC in 100 ml of PBS while stirring with a stirrer bar, followed by sterilization in the autoclave.
Then, the E9 cells were subjected to trypsin-EDTA treatment to be removed from the wall of the vessel and the cells were suspended in DMEM to be 1.0×10^6 cells/ml. 0.2 g of cytodex3 was mixed with 1.0×10^7 cells/ml E9 cells. More specifically, 4 ml of 5% cytodex3 solution was added to 10 ml of 1.0×10^6 cells/ml cell suspension. […]
Under anesthesia with diethyl ether (WAKO, 055-01155), 3 ml of air was introduced under the skin on the back of a CDF1 mouse (Charles River Japan) using a 5-ml syringe with a 27 G needle to make an air pouch. […] To inactivate endogenous alkaline phosphatases, the plasma sample was treated in a hot water bath at 65° C. for 10 minutes and then the PLAP activity derived from E9 cells in the plasma was measured. […] Subsequently, while shielding light, the mixture was incubated at room temperature for 1 hour, followed by measurement of intensity of chemiluminescence using a plate reader (Perkin Elmer, ARVO).

Cl.Cl.Cl.Fc1ccc(-c2n[nH]cc2-c2ccc3ncc(-c4nccs4)n3c2)cc1 [test compound, 2-(6-[3-(4-fluorophenyl)-1H-4-pyrazolyl]imidazo[1,2-a]pyridin-3-yl)-1,3-thiazole trihydrochloride]
suppression of the PLAP activity activated by the IL4 stimulation as compared with the control group [1]: 94.1% | inhibition of transcriptional activity through STAT6 activation by IL4 stimulation [2]: inhibit transcriptional activity through STAT6 activation

B1: IL4: human IL4 (Calbiochem, 407635), used as stimulus of STAT6-PLAP reporter cells (protein, UniProt P05112 25-153, looked up)
Interleukin-4: HKCDITLQEIIKTLNSLTEQKTLCTELTVTDIFAASKNTTEKETFCRAATVLRQFYSHHEKDTRCLGATAQQFHRHKQLIRFLKRLDRNLWGLAGLNSCPVKEANQSTLENFLERLKTIMREKYSKCSS
PLAP activity in culture supernatant upon IL4 stimulation compared to non-stimulating condition [3]: higher PLAP activity was induced | PLAP activity secreted in blood upon IL4 stimulation [4]: remarkable increase of PLAP activity
